ChEMBL document CHEMBL1152238, “Perylene side chains modulate G-quadruplex conformation in biologically relevant DNA sequences” (Bioorg Med Chem, 2008)
Calls of active or inactive are those of the source. The calls are words filed in the database; no cut-off is given here.

target: not listed separately; test: Binding affinity to 2GGG sequence of human telomeric DNA assessed as intramolecular folding leading to G-quadruplex formation at 25 degC after 30 mins by electrophoretic mobility shift assay

EC50 | SMILES
20 µM | c1cc2c3ccc4c5c(ccc(c6ccc7c(c1CN(CCN1CCCCC1)C7)c26)c53)CN(CCN1CCCCC1)C4

target: not listed separately; test: Binding affinity to 1GGG sequence of human telomeric DNA assessed as intramolecular folding leading to G-quadruplex formation at 25 degC after 30 mins by electrophoretic mobility shift assay

EC50 | SMILES
25 µM | c1cc2c3ccc4c5c(ccc(c6ccc7c(c1CN(CCN1CCCCC1)C7)c26)c53)CN(CCN1CCCCC1)C4

species: Homo sapiens; test: Binding affinity to 4GGG sequence of human telomeric DNA assessed as intramolecular folding leading to G-quadruplex formation at 25 degC after 30 mins by electrophoretic mobility shift assay

Activity | SMILES
Active | c1cc2c3ccc4c5c(ccc(c6ccc7c(c1CN(CCN1CCCCC1)C7)c26)c53)CN(CCN1CCCCC1)C4

test system: not listed separately; test: Binding affinity to pu27 sequence of c-myc DNA assessed as intramolecular folding leading to G-quadruplex formation at 25 degC after 30 mins by electrophoretic mobility shift assay

Activity | SMILES
Active | c1cc2c3ccc4c5c(ccc(c6ccc7c(c1CN(CCN1CCCCC1)C7)c26)c53)CN(CCN1CCCCC1)C4

species: Homo sapiens; test: Binding affinity to 2GGG sequence of human telomeric DNA assessed as G-quadruplex stabilization at 25 degC after 30 mins by electrophoretic mobility shift assay in presence of Li+ ions

Activity | SMILES
Active | c1cc2c3ccc4c5c(ccc(c6ccc7c(c1CN(CCN1CCCCC1)C7)c26)c53)CN(CCN1CCCCC1)C4

species: Homo sapiens; test: Binding affinity to 1GGG sequence of human telomeric DNA assessed as G-quadruplex stabilization at 25 degC after 30 mins by electrophoretic mobility shift assay in presence of Li+ ions

Activity | SMILES
Active | c1cc2c3ccc4c5c(ccc(c6ccc7c(c1CN(CCN1CCCCC1)C7)c26)c53)CN(CCN1CCCCC1)C4

species: Homo sapiens; test: Binding affinity to 4GGG sequence of human telomeric DNA assessed as G-quadruplex stabilization at 25 degC after 30 mins by electrophoretic mobility shift assay in presence of Li+ ions

Activity | SMILES
Active | c1cc2c3ccc4c5c(ccc(c6ccc7c(c1CN(CCN1CCCCC1)C7)c26)c53)CN(CCN1CCCCC1)C4

test system: not listed separately; test: Binding affinity to pu27 sequence of c-myc DNA assessed as G-quadruplex stabilization at 25 degC after 30 mins at 25 degC by electrophoretic mobility shift assay in presence of Li+ ions

Activity | SMILES
Active | c1cc2c3ccc4c5c(ccc(c6ccc7c(c1CN(CCN1CCCCC1)C7)c26)c53)CN(CCN1CCCCC1)C4

species: Homo sapiens; test: Binding affinity to double stranded 4GGG sequence of human telomeric DNA assessed as G-quadruplex formation at 0.1 to 10 uM at 37 degC after 24 hrs by electrophoretic mobility shift assay

Activity | SMILES
inactive | c1cc2c3ccc4c5c(ccc(c6ccc7c(c1CN(CCN1CCCCC1)C7)c26)c53)CN(CCN1CCCCC1)C4

species: Homo sapiens; test: Binding affinity to 4GGG sequence of human telomeric DNA assessed as G-quadruplex formation at 14 uM at 25 degC after 30 mins by circular dichroism spectroscopy in presence of K+ ions

Activity | SMILES
Active | c1cc2c3ccc4c5c(ccc(c6ccc7c(c1CN(CCN1CCCCC1)C7)c26)c53)CN(CCN1CCCCC1)C4

species: Homo sapiens; test: Binding affinity to 4GGG sequence of human telomeric DNA assessed as G-quadruplex formation at 14 uM at 25 degC after 30 mins during thermal cycling by circular dichroism spectroscopy

Activity | SMILES
inactive | c1cc2c3ccc4c5c(ccc(c6ccc7c(c1CN(CCN1CCCCC1)C7)c26)c53)CN(CCN1CCCCC1)C4

species: Homo sapiens; test: Binding affinity to unfolded 4GGG sequence of human telomeric DNA assessed as G-quadruplex formation at 25 degC by circular dichroism spectroscopy in presence of Li+ ions

Activity | SMILES
Active | c1cc2c3ccc4c5c(ccc(c6ccc7c(c1CN(CCN1CCCCC1)C7)c26)c53)CN(CCN1CCCCC1)C4

species: Homo sapiens; test: Binding affinity to 42GGG sequence of human telomeric DNA assessed as G-quadruplex formation at 25 degC upto 20 uM after 30 mins by electrophoretic mobility shift assay

Activity | SMILES
inactive | c1cc2c3ccc4c5c(ccc(c6ccc7c(c1CN(CCN1CCCCC1)C7)c26)c53)CN(CCN1CCCCC1)C4

test system: Escherichia coli; test: Binding affinity to negatively supercoiled Escherichia coli pBR322 DNA assessed as self-aggregation at 10 to 20 uM at 37 degC after 30 mins by DNA unwinding assay

Activity | SMILES
inactive | c1cc2c3ccc4c5c(ccc(c6ccc7c(c1CN(CCN1CCCCC1)C7)c26)c53)CN(CCN1CCCCC1)C4

test system: Nucleic Acid; test: Binding affinity to negatively supercoiled Escherichia coli pBR322 DNA assessed as DNA intercalation at 20 to 50 uM at pH 6 after 30 mins by DNA unwinding assay; type: nucleic-acid assay

Activity | SMILES
Active | c1cc2c3ccc4c5c(ccc(c6ccc7c(c1CN(CCN1CCCCC1)C7)c26)c53)CN(CCN1CCCCC1)C4

species: Homo sapiens; test: Binding affinity to 42GGG sequence of human telomeric DNA assessed as G-quadruplex formation at 90 degC after 10 mins by electrophoretic mobility shift assay

Activity | SMILES
inactive | c1cc2c3ccc4c5c(ccc(c6ccc7c(c1CN(CCN1CCCCC1)C7)c26)c53)CN(CCN1CCCCC1)C4

test system: not listed separately; test: Binding affinity to pu27 sequence of c-myc DNA assessed as G-quadruplex formation at 90 degC […] after 10 mins by electrophoretic mobility shift assay

Activity | SMILES
inactive | c1cc2c3ccc4c5c(ccc(c6ccc7c(c1CN(CCN1CCCCC1)C7)c26)c53)CN(CCN1CCCCC1)C4
